For six molecules, Activity results are on record in ChEMBL document CHEMBL4765228, “Indole-like Trk receptor antagonists” (Eur J Med Chem, 2016).

Test [1] has as its target MAP/microtubule affinity-regulating kinase 3 (Homo sapiens) (UniProt P27448). The test is described as follows: Inhibition of human MARK3 assessed as residual activity at 0.1 uM relative to control.
Test [2] concerns the target Serine/threonine-protein kinase PAK 4 (Homo sapiens) (UniProt O96013). The test is described as follows: Inhibition of human PAK4 assessed as residual activity at 1 uM relative to control.
Test [3] addresses Rho-associated protein kinase 2 (Homo sapiens) (UniProt O75116). In words: Inhibition of human ROCK2 assessed as residual activity at 1 uM relative to control.
Test [4] has as its target T1, Dual specificity protein kinase TTK (Homo sapiens) (UniProt P33981).
T1 sequence (whole entry): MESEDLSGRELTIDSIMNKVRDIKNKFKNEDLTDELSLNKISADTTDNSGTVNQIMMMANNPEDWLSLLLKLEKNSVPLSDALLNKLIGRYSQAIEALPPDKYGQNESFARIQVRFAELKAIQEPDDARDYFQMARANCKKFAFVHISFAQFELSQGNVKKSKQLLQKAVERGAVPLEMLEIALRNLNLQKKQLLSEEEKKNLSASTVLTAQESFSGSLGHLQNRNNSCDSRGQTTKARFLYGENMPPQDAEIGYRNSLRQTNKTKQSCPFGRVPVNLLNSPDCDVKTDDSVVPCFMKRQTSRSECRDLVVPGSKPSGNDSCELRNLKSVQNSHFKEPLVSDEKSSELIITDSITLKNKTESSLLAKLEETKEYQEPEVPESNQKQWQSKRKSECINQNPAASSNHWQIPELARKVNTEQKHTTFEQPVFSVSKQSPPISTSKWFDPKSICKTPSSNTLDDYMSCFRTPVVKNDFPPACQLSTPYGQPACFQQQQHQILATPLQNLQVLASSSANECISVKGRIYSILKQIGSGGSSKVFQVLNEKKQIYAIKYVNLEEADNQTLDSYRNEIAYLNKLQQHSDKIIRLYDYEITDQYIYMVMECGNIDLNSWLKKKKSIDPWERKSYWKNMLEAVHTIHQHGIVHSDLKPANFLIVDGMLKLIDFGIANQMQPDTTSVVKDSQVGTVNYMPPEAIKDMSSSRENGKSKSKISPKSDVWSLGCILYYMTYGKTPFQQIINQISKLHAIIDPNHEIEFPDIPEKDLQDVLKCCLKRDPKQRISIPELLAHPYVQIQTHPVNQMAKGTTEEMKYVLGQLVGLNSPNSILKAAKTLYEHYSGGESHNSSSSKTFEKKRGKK
The test is described as follows: Inhibition of human TTK assessed as residual activity at 1 uM relative to control.

Test [5] addresses T2, Eukaryotic elongation factor 2 kinase (Homo sapiens) (UniProt O00418).
T2 sequence (whole entry): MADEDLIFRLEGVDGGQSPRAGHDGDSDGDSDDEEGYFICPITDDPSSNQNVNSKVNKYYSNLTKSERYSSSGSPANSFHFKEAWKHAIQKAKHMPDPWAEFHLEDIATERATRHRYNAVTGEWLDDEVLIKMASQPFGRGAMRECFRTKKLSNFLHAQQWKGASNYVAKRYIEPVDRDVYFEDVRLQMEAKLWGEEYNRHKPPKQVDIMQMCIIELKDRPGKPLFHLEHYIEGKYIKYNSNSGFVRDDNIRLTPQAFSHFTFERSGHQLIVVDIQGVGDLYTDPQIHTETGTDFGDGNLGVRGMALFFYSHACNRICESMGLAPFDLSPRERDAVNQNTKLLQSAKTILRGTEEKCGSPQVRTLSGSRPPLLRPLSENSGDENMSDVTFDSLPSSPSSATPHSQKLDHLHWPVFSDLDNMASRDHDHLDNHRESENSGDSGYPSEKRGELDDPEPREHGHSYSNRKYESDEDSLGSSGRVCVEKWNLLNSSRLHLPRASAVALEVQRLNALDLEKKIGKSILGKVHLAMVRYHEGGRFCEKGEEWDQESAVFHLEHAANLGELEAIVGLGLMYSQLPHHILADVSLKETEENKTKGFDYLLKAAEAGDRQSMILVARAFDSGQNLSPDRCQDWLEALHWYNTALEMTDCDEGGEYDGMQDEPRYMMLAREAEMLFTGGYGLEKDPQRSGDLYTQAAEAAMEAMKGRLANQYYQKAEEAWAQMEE
In words: Inhibition of human EEF2K assessed as residual activity at 1 uM relative to control.

Test [6] addresses T2, Eukaryotic elongation factor 2 kinase (Homo sapiens). In words: Inhibition of human EEF2K assessed as residual activity at 0.1 uM relative to control.
Test [7] has as its target Insulin-like growth factor 1 receptor (Homo sapiens) (UniProt P08069). In words: Inhibition of human IGF1R assessed as residual activity at 0.1 uM relative to control.
In test [8] the target is Proto-oncogene tyrosine-protein kinase Src (Homo sapiens) (UniProt P12931). The test is described as follows: Inhibition of human GST-HIS-tagged SRC assessed as residual activity at 1 uM relative to control.
Sequence of Proto-oncogene tyrosine-protein kinase Src (Homo sapiens) (P12931 2-536 limits assumed): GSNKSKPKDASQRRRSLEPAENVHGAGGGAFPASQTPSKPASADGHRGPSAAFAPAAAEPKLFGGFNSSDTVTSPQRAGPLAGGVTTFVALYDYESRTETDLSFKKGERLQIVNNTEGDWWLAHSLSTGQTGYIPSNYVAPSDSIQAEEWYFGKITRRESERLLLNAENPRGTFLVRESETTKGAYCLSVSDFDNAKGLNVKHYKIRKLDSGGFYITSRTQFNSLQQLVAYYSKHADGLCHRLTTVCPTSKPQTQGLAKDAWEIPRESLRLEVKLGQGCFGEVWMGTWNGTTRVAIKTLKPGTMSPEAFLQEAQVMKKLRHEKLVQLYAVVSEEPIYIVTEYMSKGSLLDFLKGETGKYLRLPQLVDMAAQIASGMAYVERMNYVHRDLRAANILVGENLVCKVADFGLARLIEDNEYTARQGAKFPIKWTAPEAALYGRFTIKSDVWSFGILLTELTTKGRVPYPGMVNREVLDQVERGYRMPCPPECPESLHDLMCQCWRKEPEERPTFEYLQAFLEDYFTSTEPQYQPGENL
Test [9] addresses Serine/threonine-protein kinase Nek6 (Homo sapiens) (UniProt Q9HC98). In words: Inhibition of human NEK6 assessed as residual activity at 0.1 uM relative to control.
The target in test [10] is SRSF protein kinase 1 (Homo sapiens) (UniProt Q96SB4). In words: Inhibition of human SRPK1 assessed as residual activity at 1 uM relative to control.
Test [11] addresses Mitogen-activated protein kinase kinase kinase 11 (Homo sapiens) (UniProt Q16584). In words: Inhibition of human MAP3K11 assessed as residual activity at 1 uM relative to control.
For test [12], the target named is Mitogen-activated protein kinase 8 (Homo sapiens) (UniProt P45983). In words: Inhibition of human JNK1 assessed as residual activity at 1 uM relative to control.
Sequence of Mitogen-activated protein kinase 8 (Homo sapiens) (P45983 whole entry): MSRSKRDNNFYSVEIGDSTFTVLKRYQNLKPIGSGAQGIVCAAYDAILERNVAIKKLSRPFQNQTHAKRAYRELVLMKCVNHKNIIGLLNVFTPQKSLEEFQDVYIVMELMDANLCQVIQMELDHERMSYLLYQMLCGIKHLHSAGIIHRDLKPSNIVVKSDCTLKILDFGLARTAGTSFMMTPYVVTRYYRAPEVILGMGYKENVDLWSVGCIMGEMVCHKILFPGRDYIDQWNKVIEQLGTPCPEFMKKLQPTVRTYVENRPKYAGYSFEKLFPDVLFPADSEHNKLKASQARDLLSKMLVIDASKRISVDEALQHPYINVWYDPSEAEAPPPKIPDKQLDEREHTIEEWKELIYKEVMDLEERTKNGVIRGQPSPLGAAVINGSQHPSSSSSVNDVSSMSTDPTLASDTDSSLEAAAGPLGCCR
For test [13], the target named is T3, Interleukin-1 receptor-associated kinase 4 (Homo sapiens) (UniProt Q9NWZ3).
T3 sequence (whole entry): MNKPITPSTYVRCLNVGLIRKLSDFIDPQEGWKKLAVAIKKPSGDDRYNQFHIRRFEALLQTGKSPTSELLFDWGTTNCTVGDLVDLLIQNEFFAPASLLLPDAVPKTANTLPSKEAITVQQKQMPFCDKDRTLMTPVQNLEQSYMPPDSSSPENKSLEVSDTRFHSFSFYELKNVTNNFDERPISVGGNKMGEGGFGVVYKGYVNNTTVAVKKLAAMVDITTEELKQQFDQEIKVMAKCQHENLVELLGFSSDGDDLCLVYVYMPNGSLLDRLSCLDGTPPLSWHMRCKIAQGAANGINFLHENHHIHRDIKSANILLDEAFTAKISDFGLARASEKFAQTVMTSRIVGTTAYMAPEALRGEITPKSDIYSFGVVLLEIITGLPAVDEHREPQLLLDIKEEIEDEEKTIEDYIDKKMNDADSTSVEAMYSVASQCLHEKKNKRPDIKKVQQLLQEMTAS
The test is described as follows: Inhibition of human untagged IRAK4 assessed as residual activity at 0.1 uM relative to control.

For test [14], the target named is Receptor-interacting serine/threonine-protein kinase 2 (Homo sapiens) (UniProt O43353). In words: Inhibition of human RIPK2 assessed as residual activity at 0.1 uM relative to control.
Sequence of Receptor-interacting serine/threonine-protein kinase 2 (Homo sapiens) (O43353 whole entry): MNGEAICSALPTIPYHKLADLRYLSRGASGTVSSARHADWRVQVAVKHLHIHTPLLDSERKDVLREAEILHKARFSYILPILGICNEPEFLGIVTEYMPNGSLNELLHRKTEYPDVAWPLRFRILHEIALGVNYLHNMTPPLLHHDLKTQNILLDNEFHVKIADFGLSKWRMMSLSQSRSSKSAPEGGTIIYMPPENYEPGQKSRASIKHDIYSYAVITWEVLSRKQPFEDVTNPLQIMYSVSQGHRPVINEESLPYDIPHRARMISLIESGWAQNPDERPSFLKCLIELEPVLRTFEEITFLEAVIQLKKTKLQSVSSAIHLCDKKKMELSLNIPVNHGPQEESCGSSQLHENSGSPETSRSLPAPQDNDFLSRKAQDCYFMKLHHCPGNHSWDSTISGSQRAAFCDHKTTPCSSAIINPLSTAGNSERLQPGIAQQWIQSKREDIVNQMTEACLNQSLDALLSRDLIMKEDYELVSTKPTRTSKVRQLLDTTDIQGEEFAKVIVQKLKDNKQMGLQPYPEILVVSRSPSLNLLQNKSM
Test [15] has as its target Tyrosine-protein kinase BTK (Homo sapiens) (UniProt Q06187). The test is described as follows: Inhibition of human BTK assessed as residual activity at 1 uM relative to control.

Sequence of Rho-associated protein kinase 2 (Homo sapiens) (O75116 whole entry, looked up): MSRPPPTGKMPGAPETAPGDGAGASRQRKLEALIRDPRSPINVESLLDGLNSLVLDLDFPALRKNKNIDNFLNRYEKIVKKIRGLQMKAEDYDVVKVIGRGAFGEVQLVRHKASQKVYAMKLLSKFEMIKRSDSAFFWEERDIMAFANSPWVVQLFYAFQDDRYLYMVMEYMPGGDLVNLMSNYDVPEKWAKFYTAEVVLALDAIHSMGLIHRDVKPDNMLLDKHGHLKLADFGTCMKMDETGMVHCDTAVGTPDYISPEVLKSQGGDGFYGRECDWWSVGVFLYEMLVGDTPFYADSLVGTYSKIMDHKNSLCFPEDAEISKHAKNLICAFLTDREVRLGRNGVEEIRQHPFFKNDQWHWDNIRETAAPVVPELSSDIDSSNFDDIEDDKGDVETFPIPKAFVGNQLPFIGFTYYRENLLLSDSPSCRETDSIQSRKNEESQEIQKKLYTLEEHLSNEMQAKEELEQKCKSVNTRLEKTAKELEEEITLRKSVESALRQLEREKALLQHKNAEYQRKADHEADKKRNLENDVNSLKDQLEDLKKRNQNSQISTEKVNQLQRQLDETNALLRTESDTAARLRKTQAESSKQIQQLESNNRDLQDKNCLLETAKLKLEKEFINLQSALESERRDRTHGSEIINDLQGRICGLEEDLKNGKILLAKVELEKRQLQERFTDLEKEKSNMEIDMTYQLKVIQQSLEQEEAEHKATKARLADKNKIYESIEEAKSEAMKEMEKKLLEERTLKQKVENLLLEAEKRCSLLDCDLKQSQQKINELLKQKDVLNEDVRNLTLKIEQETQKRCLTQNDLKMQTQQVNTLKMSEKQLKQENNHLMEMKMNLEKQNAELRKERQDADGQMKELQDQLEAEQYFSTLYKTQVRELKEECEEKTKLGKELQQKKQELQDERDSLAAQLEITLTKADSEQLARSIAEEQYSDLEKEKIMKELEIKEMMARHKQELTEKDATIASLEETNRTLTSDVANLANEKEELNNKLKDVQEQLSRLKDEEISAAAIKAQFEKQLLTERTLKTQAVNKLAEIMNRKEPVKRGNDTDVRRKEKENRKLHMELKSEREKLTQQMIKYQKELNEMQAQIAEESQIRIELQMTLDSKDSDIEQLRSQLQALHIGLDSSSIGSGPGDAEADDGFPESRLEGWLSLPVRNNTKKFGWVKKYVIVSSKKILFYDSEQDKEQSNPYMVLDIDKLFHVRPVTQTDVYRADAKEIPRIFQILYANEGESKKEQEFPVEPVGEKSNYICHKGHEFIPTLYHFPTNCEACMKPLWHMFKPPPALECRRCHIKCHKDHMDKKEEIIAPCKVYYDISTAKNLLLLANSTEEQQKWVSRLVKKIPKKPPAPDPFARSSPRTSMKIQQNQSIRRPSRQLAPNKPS
Sequence of Mitogen-activated protein kinase kinase kinase 11 (Homo sapiens) (Q16584 whole entry, looked up): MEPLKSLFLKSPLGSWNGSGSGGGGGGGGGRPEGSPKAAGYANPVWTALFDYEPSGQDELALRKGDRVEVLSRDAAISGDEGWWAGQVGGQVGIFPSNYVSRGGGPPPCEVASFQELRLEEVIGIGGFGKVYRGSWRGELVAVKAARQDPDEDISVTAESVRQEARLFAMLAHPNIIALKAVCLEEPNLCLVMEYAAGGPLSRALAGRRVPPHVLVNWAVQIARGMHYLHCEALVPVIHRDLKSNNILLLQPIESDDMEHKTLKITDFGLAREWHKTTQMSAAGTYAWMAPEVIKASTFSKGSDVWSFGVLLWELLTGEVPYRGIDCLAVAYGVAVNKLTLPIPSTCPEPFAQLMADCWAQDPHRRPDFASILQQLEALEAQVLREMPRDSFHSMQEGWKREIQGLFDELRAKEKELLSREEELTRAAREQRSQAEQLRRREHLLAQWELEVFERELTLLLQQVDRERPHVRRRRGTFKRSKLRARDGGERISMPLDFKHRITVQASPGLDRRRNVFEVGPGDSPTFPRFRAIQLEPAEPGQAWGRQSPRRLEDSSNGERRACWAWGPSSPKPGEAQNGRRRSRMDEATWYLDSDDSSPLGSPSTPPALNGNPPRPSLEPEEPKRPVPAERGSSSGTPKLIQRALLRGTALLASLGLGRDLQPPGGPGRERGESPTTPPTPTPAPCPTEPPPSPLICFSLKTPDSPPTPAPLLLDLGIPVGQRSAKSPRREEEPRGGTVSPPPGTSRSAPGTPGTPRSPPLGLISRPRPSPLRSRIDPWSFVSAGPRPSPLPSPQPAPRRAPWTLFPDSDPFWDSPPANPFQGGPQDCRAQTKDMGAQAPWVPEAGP
Sequence of Insulin-like growth factor 1 receptor (Homo sapiens) (P08069 31-736 limits assumed): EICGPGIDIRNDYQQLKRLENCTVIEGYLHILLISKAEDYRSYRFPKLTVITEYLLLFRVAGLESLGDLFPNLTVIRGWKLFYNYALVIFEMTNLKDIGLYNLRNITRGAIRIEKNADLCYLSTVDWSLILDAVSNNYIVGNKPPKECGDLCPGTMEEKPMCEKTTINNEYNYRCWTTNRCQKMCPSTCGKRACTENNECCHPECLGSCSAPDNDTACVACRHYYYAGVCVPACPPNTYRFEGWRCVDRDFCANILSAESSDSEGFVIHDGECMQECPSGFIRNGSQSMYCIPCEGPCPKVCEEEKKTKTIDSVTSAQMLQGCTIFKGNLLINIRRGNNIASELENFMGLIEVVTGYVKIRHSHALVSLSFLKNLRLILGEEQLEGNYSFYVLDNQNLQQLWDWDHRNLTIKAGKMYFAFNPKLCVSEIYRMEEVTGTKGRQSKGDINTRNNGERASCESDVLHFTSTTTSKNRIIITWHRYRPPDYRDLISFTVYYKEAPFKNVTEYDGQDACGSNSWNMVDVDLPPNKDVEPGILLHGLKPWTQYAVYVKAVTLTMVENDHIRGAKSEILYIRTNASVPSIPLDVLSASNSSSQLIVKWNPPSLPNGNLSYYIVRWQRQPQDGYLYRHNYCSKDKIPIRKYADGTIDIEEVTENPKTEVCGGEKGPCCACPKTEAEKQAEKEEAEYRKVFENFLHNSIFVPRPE
Sequence of Insulin-like growth factor 1 receptor (Homo sapiens) (P08069 741-1367 limits assumed): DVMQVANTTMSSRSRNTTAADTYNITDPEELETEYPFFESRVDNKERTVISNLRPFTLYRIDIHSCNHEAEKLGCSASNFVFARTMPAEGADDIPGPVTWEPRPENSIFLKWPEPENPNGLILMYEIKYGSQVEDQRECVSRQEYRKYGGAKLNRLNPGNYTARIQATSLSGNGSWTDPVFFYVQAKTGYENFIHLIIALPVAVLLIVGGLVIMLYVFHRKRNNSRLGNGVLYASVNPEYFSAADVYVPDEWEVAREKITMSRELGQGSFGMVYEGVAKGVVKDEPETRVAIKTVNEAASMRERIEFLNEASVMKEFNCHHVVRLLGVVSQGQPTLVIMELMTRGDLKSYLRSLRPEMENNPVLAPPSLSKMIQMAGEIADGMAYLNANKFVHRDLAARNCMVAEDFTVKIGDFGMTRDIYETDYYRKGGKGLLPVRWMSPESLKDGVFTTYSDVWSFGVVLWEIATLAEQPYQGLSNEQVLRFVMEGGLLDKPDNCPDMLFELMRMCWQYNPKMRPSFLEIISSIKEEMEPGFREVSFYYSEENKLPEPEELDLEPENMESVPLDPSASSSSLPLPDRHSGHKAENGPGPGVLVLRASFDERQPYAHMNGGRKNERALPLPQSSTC

Regarding `CNS(=O)(=O)c1ccc2c(c1)/C(=C/c1cn(C)c3ccc(OC)cc13)C(=O)N2`, the Activity was determined as 100% in test [1]; 91% in test [2]; 79% in test [3]; 86% in test [4]; 92% in test [5]; 103% in test [6]. Also, the Activity in test [7] turned out to be 96%; in [8] it was 73%; in test [9], 99%; in [10], 101%; in test [11], 55%; in [12] it was 112%. The figures for the Activity in test [13], in test [14] and in test [15] were 59%, 108% and 73%, respectively.
Consider `Cn1cc(/C=C2\C(=O)Nc3ccc(S(N)(=O)=O)cc32)c2ccccc21`, for which the Activity came to 93% in test [1]; 78% in test [2]; 55% in test [3]; 85% in test [4]; 103% in [5]; 99% in [6]. Moreover, the Activity in test [7] came out at 105%; in test [8], 108%; in test [9], 111%; in test [10] it was 101%; in test [11], 12%; in test [12] it was 94%. The figures for the Activity in [13], in test [14] and in test [15] were 6%, 102% and 119%, respectively.
With `COc1ccc2c(c1)c(/C=C1\C(=O)Nc3ccc(S(N)(=O)=O)cc31)cn2C`, the Activity in test [1] is 96%; in test [2], 68%; in test [3] it was 87%; in [4], 96%; in test [5] it was 102%; in test [6], 101%. The Activity in test [7] stood at 105%; in test [8] it was 91%; in [9], 106%; in [10], 99%; in test [11], 38%; in test [12] it was 95%. Further, the Activity in test [13] was 12%; in test [14], 100%; in test [15], 107%.
Take `CN(C)S(=O)(=O)c1ccc2c(c1)/C(=C/c1cn(C)c3ccc(O)cc13)C(=O)N2`: the Activity in [1] was 103%; in [2], 90%; in test [3] it was 69%; in test [4] it was 96%; in test [5], 106%; in test [6] it was 97%. Besides, the Activity in [7] was found to be 102%; in test [8] it was 68%; in test [9], 104%; in test [10] it was 94%; in [11] it was 51%; in [12] it was 97%. For the same molecule, the Activity was 68% in test [13], 94% in [14] and 107% in test [15].
`COc1ccc2c(c1)c(/C=C1\C(=O)Nc3ccc(S(=O)(=O)N(C)C)cc31)cn2C`: the Activity was found to be 93% in test [1]; 99% in test [2]; 89% in test [3]; 106% in [4]; 86% in test [5]; 99% in [6]. Besides, the Activity in [7] was 94%; in test [8], 70%; in test [9], 100%; in [10], 95%; in [11], 37%; in [12], 100%. Besides, the Activity stood at 91% in [13], 104% in [14] and 89% in test [15].
Take `COc1ccc2[nH]cc(/C=C3\C(=O)Nc4ccc(S(N)(=O)=O)cc43)c2c1`: the Activity in [1] was determined as 101%; in test [2] it was 82%; in [3], 61%; in test [4] it was 80%; in test [5] it was 112%; in test [6], 107%. For the same molecule, the Activity in [7] worked out at 98%; in test [8] it was 74%; in test [9] it was 117%; in [10] it was 93%; in test [11] it was 25%; in test [12], 87%. In addition, the Activity in [13] worked out at 45%; in test [14], 96%; in [15], 91%.
